In PubChem BioAssay (NCI):
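Assay format: 96-well plates, 48-hour exposure. Definition used: TGI = concentration required for complete inhibition of growth.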

Experiments:
Assay in all cases: inhibition of tumour cell growth, NCI panel, 48 h
[1] = system: T-47D breast
[2] = system: M14 melanoma
[3] = system: EKVX NSCLC
[4] = system: SK-MEL-5 melanoma
[5] = system: TK-10 renal
[6] = system: NCI-H522 lung
[7] = system: SR leukemia
[8] = system: A549 NSCLC
[9] = system: CCRF-CEM leukemia
[10] = system: HL-60(TB) leukemia
[11] = system: COLO 205 colon
[12] = system: NCI/ADR-RES ovarian
[13] = system: OVCAR-4 ovarian
[14] = system: SN12C renal
[15] = system: SF-268 CNS
[16] = system: LOX IMVI melanoma
[17] = system: UACC-62 melanoma
[18] = system: SK-MEL-28 melanoma
[19] = system: SNB-19 CNS
[20] = system: MALME-3M melanoma

Cc1ccc(S(=O)(=O)N2CCN(S(=O)(=O)c3ccc(C)cc3)Cc3ccccc3C2)cc1
TGI [1]: > 100 µM | TGI [2]: > 100 µM | TGI [3]: > 100 µM | TGI [4]: > 100 µM | TGI [5]: > 100 µM | TGI [6]: 95 µM | TGI [7]: > 100 µM | TGI [8]: > 100 µM | TGI [9]: > 100 µM | TGI [10]: > 100 µM | TGI [11]: > 100 µM | TGI [12]: > 100 µM | TGI [13]: 90.8 µM | TGI [14]: > 100 µM | TGI [15]: > 100 µM | TGI [16]: > 100 µM | TGI [17]: 36.7 µM | TGI [18]: > 100 µM | TGI [19]: > 100 µM | TGI [20]: > 100 µM

O=C1/C(=C/c2cccnc2)C(n2cccc2)c2c(Br)sc(Br)c21 (stereo not given)
TGI [1]: 6.25 µM | TGI [2]: 4.85 µM | TGI [3]: 4.1 µM | TGI [4]: 21.5 µM | TGI [5]: 4.28 µM | TGI [6]: 12.6 µM | TGI [7]: 6.37 µM | TGI [8]: 32.5 µM | TGI [9]: 10.1 µM | TGI [10]: 5.57 µM | TGI [11]: 21.6 µM | TGI [12]: > 52 µM | TGI [13]: 3.83 µM | TGI [14]: 14.2 µM | TGI [15]: 4.3 µM | TGI [16]: 3.89 µM | TGI [17]: 4.49 µM | TGI [18]: 7.31 µM | TGI [19]: 9.65 µM | TGI [20]: 10.7 µM

Cc1ccccc1C1CC(=O)CC(c2ccccc2C)C12C(=O)NC(=O)NC2=O (stereo not given)
TGI [1]: > 100 µM | TGI [2]: > 100 µM | TGI [3]: > 100 µM | TGI [4]: > 100 µM | TGI [5]: > 100 µM | TGI [6]: > 100 µM | TGI [7]: > 100 µM | TGI [8]: > 100 µM | TGI [9]: > 100 µM | TGI [10]: > 100 µM | TGI [11]: > 100 µM | TGI [12]: > 100 µM | TGI [13]: > 100 µM | TGI [14]: > 100 µM | TGI [15]: > 100 µM | TGI [16]: > 100 µM | TGI [17]: > 100 µM | TGI [18]: > 100 µM | TGI [19]: > 100 µM | TGI [20]: > 100 µM

CN(NC(=O)c1ccco1)C1=NCCN1
TGI [1]: > 100 µM | TGI [2]: > 100 µM | TGI [3]: > 100 µM | TGI [4]: > 100 µM | TGI [5]: > 100 µM | TGI [6]: > 100 µM | TGI [7]: > 100 µM | TGI [8]: > 100 µM | TGI [9]: > 100 µM | TGI [10]: > 100 µM | TGI [11]: > 100 µM | TGI [12]: > 100 µM | TGI [13]: > 100 µM | TGI [14]: > 100 µM | TGI [15]: > 100 µM | TGI [16]: > 100 µM | TGI [17]: > 100 µM | TGI [18]: > 100 µM | TGI [19]: > 100 µM | TGI [20]: > 100 µM
